In patent publication EP0731697B1, “SSI TYRPHOSTINS AND PHARMACEUTICAL COMPOSITIONS” (priority 1993, dated 1995):

Experiments:
[1] = target: Her-2/neu receptor (Homo sapiens, UniProt P04626); settings: even at concentrations above 100 uM; cited from earlier work
[2] = test system: mice; assay: LPS-induced lethal toxicity in mice
[3] = test system: p42^MAPK; assay: LPS-induced tyrosine phosphorylation in macrophages; assay type: cell-based; settings: murine peritoneal macrophages pre-treated with protective concentrations
Excerpt: LPS-induced tyrosine phosphorylation of a 42 kD protein in murine peritoneal macrophages was inhibited by pre-treating the cells as before with protective concentrations of SSI 3. This protein band was identified as p42^MAPK. […] (Stefanova et al., supra.)

[4] = test system: TNF-α; assay: LPS-induced production of TNF-α by activated murine peritoneal macrophages in vitro
Method: The amount of TNF-α was quantitated by assessing the extent of killing of the TNF-α sensitive cell line (A9) essentially as described by Ruff and Gilford, G. E. J. Immunol. […] Briefly, mouse A9 fibroblasts were plated in 96-well flat-bottom micro-titer plates at 30,000 cells /0.1 ml to establish a dense monolayer. After incubation for 24 hr at 37 C in a humidified 5% CO2 atmosphere, cycloheximide was added to a final concentration of 50 ug/ml and 100 ul of serially diluted test samples were added to the wells. After incubation for additional 18 hr the supernatants were carefully aspirated, the monolayer were washed twice with PBS and 200 ul of neutral red solution (0.02%) was added. After incubation for 2 hr, cells were washed and the dye that had been absorbed by the live cells was extracted using 200 ul of 50% ethanol. The concentration of the dye was determined by an ELISA autoreader using a 550 nm filter. Murine TNF-α ELISA kit from ENDOGEN Inc., was used for quancitation of murine TNF-α.
Mice were injected i.p. with 1 ml sodium periodate (5mM). Three to 4 days later, macrophages were washed from the peritoneal cavity with PBS. After centrifugation at 170g for 10 min at 40° C, the cell pellet was resuspended in RPMI 1640 containing 10% heat-inactivated new born calf serum. Adherent macrophage monolayers were obtained by plating the cells in 96-well plastic trays at 4x10^5 cells/well for 2 hr at 37°C in 5% CO2/air. Nonadherent cells were removed by suction and complete medium was added.

Sequence of Her-2/neu receptor (P04626 23-1255): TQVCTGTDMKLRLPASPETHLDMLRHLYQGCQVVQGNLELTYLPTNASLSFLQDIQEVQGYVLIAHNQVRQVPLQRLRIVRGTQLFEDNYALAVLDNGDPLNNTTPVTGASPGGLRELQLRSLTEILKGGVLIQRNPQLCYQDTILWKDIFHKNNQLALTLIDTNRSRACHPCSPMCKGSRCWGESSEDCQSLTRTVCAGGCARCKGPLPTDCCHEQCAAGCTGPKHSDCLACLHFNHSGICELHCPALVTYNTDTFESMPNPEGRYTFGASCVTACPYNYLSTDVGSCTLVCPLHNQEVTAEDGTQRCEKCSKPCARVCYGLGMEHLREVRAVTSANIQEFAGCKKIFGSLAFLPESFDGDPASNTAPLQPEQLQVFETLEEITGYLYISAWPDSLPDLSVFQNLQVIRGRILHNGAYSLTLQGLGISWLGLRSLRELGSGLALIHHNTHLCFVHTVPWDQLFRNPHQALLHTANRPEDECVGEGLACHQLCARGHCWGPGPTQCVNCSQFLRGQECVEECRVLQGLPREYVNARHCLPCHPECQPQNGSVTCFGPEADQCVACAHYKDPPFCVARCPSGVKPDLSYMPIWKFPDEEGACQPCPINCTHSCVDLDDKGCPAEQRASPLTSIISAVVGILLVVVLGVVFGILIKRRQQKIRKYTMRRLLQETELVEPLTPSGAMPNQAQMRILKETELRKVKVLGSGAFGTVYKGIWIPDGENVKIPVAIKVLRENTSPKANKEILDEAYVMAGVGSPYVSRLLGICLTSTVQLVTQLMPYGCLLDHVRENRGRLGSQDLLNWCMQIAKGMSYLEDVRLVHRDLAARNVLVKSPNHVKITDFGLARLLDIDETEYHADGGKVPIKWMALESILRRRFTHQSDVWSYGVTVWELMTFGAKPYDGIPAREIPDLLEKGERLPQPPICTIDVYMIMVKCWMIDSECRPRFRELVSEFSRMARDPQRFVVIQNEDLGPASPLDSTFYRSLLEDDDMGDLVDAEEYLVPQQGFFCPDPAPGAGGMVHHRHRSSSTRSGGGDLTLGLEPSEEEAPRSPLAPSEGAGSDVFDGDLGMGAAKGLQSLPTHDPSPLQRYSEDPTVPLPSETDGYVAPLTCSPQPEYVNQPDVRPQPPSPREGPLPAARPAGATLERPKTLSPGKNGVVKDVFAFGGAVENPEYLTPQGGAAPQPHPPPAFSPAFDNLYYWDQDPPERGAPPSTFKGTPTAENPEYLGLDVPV

For `N#CC(C#N)=Cc1ccc([N+](=O)[O-])c(O)c1` [SSI 3], the “effect on Her-2/neu receptor” value [1] is given as “no effect”, the extent of lethality ([2]; 400 ug/mouse i.p. two hrs prior to LPS 1.5 mg/mouse, within 5 days, 2 mice out of 20, LPS alone 95%) is given as 10% and the “minimal dose that provided essentially full protection against LPS induced lethal toxicity” value ([2]; LPS 1.5 mg/mouse, administered 2 hours prior to LPS) is given as 400 ug/mouse. The “protective effect on the LPS-induced lethal toxicity” value ([2]; administered 2 hours after LPS) was “essentially no protective effect”, the “preventing the lethal toxicity” value ([2]; administered at the time of LPS treatment, compared with 2 hr prior to LPS) was “less effective” and the “protection against LPS induced lethal toxicity” value ([2]; doses of 100 and 200 ug/mouse, 5 mice over 6 days) was “partial protection”. For the same compound, the “LPS-induced tyrosine phosphorylation of a 42 kD protein” value [3] was “inhibited”, the TNF-α ([4]; LPS +) was less than 5 pg/mL and the TNF-α ([4]; LPS -) was less than 5 pg/mL. For the same compound, the “ability to inhibit LPS-induced production of TNF-α by activated murine peritoneal macrophages in vitro” value ([4]; among the tyrphostins tested) was “most potent”.
